Reference: the supplement of paper PMC10307832

Columns and labels:
Experiment in all cases: relative viability (nuclei count vs DMSO), 5 days (fraction); higher = more cells survive
AT-7519 + Olaparib = compound: O=C(NC1CCNCC1)c1n[nH]cc1NC(=O)c1c(Cl)cccc1Cl [AT-7519] + O=C(c1cc(Cc2n[nH]c(=O)c3ccccc23)ccc1F)N1CCN(C(=O)C2CC2)CC1 [Olaparib] (partner 8 µM)
Method in brief: (§1)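 Relative viability equals treated-well nuclei counts divided by vehicle-well nuclei counts. Counts came from 4× images of lung cancer cell lines grown in 1536-well plates for 5 days after pin-tool dosing on the day after seeding. Dosing used one drug alone or a fixed anchor-drug dose plus five library-drug doses (not always all listed) in √10 steps, and values are medians of duplicate plates.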

AT-7519 + Tozasertib = compound: O=C(NC1CCNCC1)c1n[nH]cc1NC(=O)c1c(Cl)cccc1Cl [AT-7519] + Cc1cc(Nc2cc(N3CCN(C)CC3)nc(Sc3ccc(NC(=O)C4CC4)cc3)n2)n[nH]1 [Tozasertib] (partner 0.1 µM)
Method in brief: as §1

[1] = compound: C1=CC2=C(C=C(C(=C2N=C1)O)N=NC3=CC4=C(C=C3)C=C(C=C4)S(=O)(=O)O)S(=O)(=O)O + COc1cc2c(Oc3ccc(NC(=O)C4(C(=O)Nc5ccc(F)cc5)CC4)cc3F)ccnc2cc1OCCCN1CCOCC1 [Foretinib] (partner 0.25 µM)
Method in brief: as §1

[2] = compound: C1=CC2=C(C=C(C(=C2N=C1)O)N=NC3=CC4=C(C=C3)C=C(C=C4)S(=O)(=O)O)S(=O)(=O)O + CS(=O)(=O)N1CCN(Cc2cc3nc(-c4cccc5[nH]ncc45)nc(N4CCOCC4)c3s2)CC1 [Pictilisib] (partner 1 µM)
Method in brief: as §1

Row | Cell Line | relative viability (AT-7519 + Olaparib; first compound 0.01 µM) | relative viability (AT-7519 + Olaparib; first compound 0.03162 µM) | relative viability (AT-7519 + Olaparib; first compound 0.3162 µM) | relative viability (AT-7519 + Olaparib; first compound 1 µM) | relative viability (AT-7519 + Tozasertib; first compound 0.01 µM) | relative viability (AT-7519 + Tozasertib; first compound 0.03162 µM) | relative viability (AT-7519 + Tozasertib; first compound 0.3162 µM) | relative viability (AT-7519 + Tozasertib; first compound 1 µM) | relative viability ([1]; first compound 0.08 µM) | relative viability ([1]; first compound 0.253 µM) | relative viability ([1]; first compound 0.8 µM) | relative viability ([1]; first compound 2.53 µM) | relative viability ([1]; first compound 8 µM) | relative viability ([2]; first compound 0.08 µM) | relative viability ([2]; first compound 0.253 µM) | relative viability ([2]; first compound 0.8 µM) | relative viability ([2]; first compound 2.53 µM) | relative viability ([2]; first compound 8 µM)
1 | NCI-H23 | 0.368 | 0.265 | 0.327 | 0.173 | 0.332 | 0.361 | 0.337 | 0.395 | 0.544 | 0.923 | 0.925 | 1.04 | 0.84 | 0.516 | 0.514 | 0.365 | 0.45 | 0.585
2 | LCLC-97TM1 | 0.284 | 0.264 | 0.355 | 0.294 | 0.24 | 0.208 | 0.27 | 0.124 | 0.938 | 0.932 | 0.865 | 0.93 | 0.986 | – | 0.239 | – | 0.149 | 0.222
3 | EPLC-272H | 0.604 | 0.591 | 0.606 | 0.0569 | 0.376 | 0.26 | 0.39 | 0.243 | 0.779 | 0.752 | 0.704 | 0.646 | 0.723 | 0.354 | 0.321 | 0.291 | 0.312 | 0.104
4 | NCI-H1915 | 0.25 | 0.273 | 0.292 | 0.208 | 0.482 | 0.461 | 0.456 | 0.347 | 1.12 | 1.04 | 1.09 | 1.13 | 1.12 | 0.883 | 0.97 | 0.856 | 0.95 | 0.952
5 | NCI-H2405 | 0.89 | 0.783 | 0.906 | 0.606 | 0.819 | 0.797 | 0.725 | 0.463 | 1.1 | 1.04 | 1.06 | 1.03 | 1.04 | 0.496 | 0.432 | 0.33 | 0.418 | 0.28
6 | NCI-H322M | 0.746 | 0.739 | 0.249 | 0.643 | 0.493 | 0.497 | 0.361 | 0.196 | 1.1 | 0.989 | 0.919 | 0.89 | 0.95 | 0.505 | 0.473 | 0.444 | 0.442 | 0.524
7 | NCI-H2170 | 0.585 | 0.59 | 0.608 | 0.562 | 0.672 | 0.751 | 0.762 | 0.651 | 1.05 | 0.925 | 0.958 | 0.799 | 0.954 | 0.315 | 0.4 | 0.312 | 0.306 | 0.308
8 | NCI-H1395 | 0.374 | 0.471 | 0.413 | 0.419 | 0.788 | 0.782 | 0.716 | 0.668 | 0.965 | 0.988 | 0.956 | 1.03 | 1 | 0.667 | 0.607 | 0.578 | 0.575 | 0.602
9 | NCI-H358 | 0.608 | 0.48 | 0.36 | 0.11 | 0.111 | 0.116 | 0.0818 | 0.0852 | 0.778 | 0.61 | 0.635 | 0.651 | 0.884 | 0.37 | 0.35 | 0.323 | 0.356 | 0.363
10 | NCI-H838 | 0.812 | 0.766 | 0.576 | 0.0987 | 0.315 | 0.277 | 0.291 | 0.187 | 1.13 | 1.06 | 1.04 | 1.03 | 1.04 | 0.42 | 0.42 | 0.437 | 0.417 | 0.518
11 | CAL-12T | 0.736 | 0.736 | 0.539 | 0.163 | 0.298 | 0.33 | 0.213 | 0.122 | 1.08 | 1.25 | 1.12 | 1.06 | 0.772 | 0.351 | 0.409 | 0.366 | 0.36 | 0.323
